In patent US20210079037A1, “LIGHT-SWITCHABLE POLYPEPTIDE AND USES THEREOF” (TECHNISCHE UNIVERSITÄT MÜNCHEN, priority 2017, published 2021):

Legend:
[1] = Solubility in water and culture medium; format: physicochemical; details: physiological pH
[2] = prior art amino acid; cited from earlier work
[3] = Light-induced isomerization of Caf, analysis by HPLC; format: physicochemical; details: for isomer composition after irradiation with green light (HPLC): green LED light, λ=520 nm, after UV irradiation; for isomer composition before irradiation (HPLC): ground state, prior to irradiation
Procedure: 500 μl of a 60 μM solution of Caf (7) in water was placed in a 1.5 ml HPLC vial (Screw neck vial N9, amber glass, 11.6×32 mm; Macherey Nagel, Duren, Germany) and irradiated with a UV LED (λ=353 nm, NS355L-5RLO; Nitride Semiconductors, Tokushima, Japan) for 30 min directly from the top. Before and after irradiation, a 20 μl sample of the solution was withdrawn and analyzed by HPLC on a Purospher RP-8e 250×3 mm column (Merck), applying a concentration gradient of 10-12% acetonitrile (ACN) in 50 mM NH4OAc buffer pH 8 over 10 min (flow rate 0.6 ml/min). Another sample was analyzed in the same manner after irradiation with green LED light (λ=520 nm, LL-504PGC2E-G5-2CC, Lucky Light Electronics, Hongkong, China). […] The chromatograms reveal that the cis and trans isomers of (7) can be separated by HPLC (cis-(7) tR=3.6 min, trans-(7) tR=4.6 min). […] However, it should be taken into account that also during HPLC analysis reisomerization of cis-(7) to trans-(7) takes place, so the proportion of cis-(7) after irradiation with UV light might actually be higher than indicated by HPLC chromatograms. Thus, if the light-switchable polypeptide of the present invention is applied for an affinity chromatography procedure, and the trans configuration corresponds to the high affinity state whereas the cis configuration corresponds to the low affinity conformation, then the highest degree of binding and the highest degree of elution of the molecule of interest takes place at 430 nm and 330 nm, respectively. However, conventional light sources usually provide light having wavelengths that are around 530 nm (visible light) and 365 nm (UV light). Therefore, also light providing these wavelengths (i.e. around 530 nm and/or around 365 nm) may be used in accordance with the present invention.

[4] = Light-induced isomerization of Caf, analysis by UV-VIS spectroscopy; format: physicochemical; details: 30 μM aqueous solution; alternating UV and green LED irradiation over 3 cycles
Source text: The electronic transition π→π* is usually in the near UV region around 340 nm (Sension et al. 1993 J. Chem. Phys. 98: 6291-6315) whereas the electronic transition n→π* is usually located in the visible (VIS) region around 420 nm and is due to the presence of unshared electron pairs of the nitrogen atoms (Naegele et al. 1997 Chem. Phys. Lett. 272: 489-495). To examine whether the synthesized non-natural amino acid Caf (7) can respond to photoswitching induced by UV light, the compound was subjected to alternating irradiation cycles. In a typical experiment, 0.5 ml of a 30 μM aqueous solution was placed in a quartz cuvette with 1 cm optical pathlength. Then the sample was irradiated for 30 min from the top using a UV LED (NS355L-5RLO; Nitride Semiconductors, Tokushima, Japan) with 353 nm or a green LED (LL-504PGC2E-G5-2CC; Lucky Light Electronics, Hongkong, China) with 520 nm emitting wavelength. The change in intensity of the π-π* band at around 340 nm corresponding to the trans/cis isomerization (FIG. 4A) was monitored with a computer controlled photometer (Ultrospec 2100 pro, Amersham Biosciences).

N[C@@H](Cc1ccc(N=Nc2cccc(C(=O)O)c2)cc1)C(=O)O [3′-carboxyphenylazophenylalanine, 4-[(3-Carboxyphenyl)azo]-L-phenylalanine]
solubility in water and LB culture medium [1]: good solubility

N[C@@H](Cc1ccc(N=Nc2ccccc2)cc1)C(=O)O [AzoPhe]
solubility in water as well as culture media [2]: extremely poor solubility

N[C@@H](Cc1ccc(N=Nc2ccc(C(=O)O)cc2)cc1)C(=O)O [Caf, 4-[(4-carboxyphenyl)azo]-L-phenylalanine]
isomer composition after irradiation with UV light (HPLC) ([3]; after irradiation with UV light): mostly cis isomer
proportion of cis-(7) ([3]; after irradiation with UV light for 30 min, 60 μM in water, HPLC at 286 nm): up to 86%
isomer composition after irradiation with green light (HPLC) [3]: recovering the ground state
isomer composition after irradiation with green light (HPLC) ([3]; listed as 7): mostly trans isomer
isomer composition before irradiation (HPLC) [3]: only energetically favored trans-(7)
isomer composition before irradiation (HPLC) ([3]; listed as 7): essentially pure trans isomer
photoswitching between trans and cis configuration (absorbance at about 340 nm) [4]: reversible photoswitching
solubility in water and LB culture medium [1]: good solubility
